pIC50: −log10 of the molar value.
Tested on: SK-BR-3
Test: Cytotoxicity against human SKBR3 cells at 10 uM after 72 hrs by MTT assay
Format: functional
Settings: not given

Compound	Activity [%]
Cc1nc2cc(NCc3ccccc3O)ccc2n1Cc1ccccc1	13
COc1cc(OCC(=O)Nc2cccc([N+](=O)[O-])c2)ccc1/C=N/Nc1ncnc2sc3c(c12)CCCC3	7
c1ccc2c(NCCCNc3ncnc4ccccc34)ncnc2c1	32
COc1cccc(OC)c1C(=O)Nc1ccc2c(c1)OCC(=O)N2Cc1ccccc1Cl	2
Clc1cc(Nc2c3ccccc3nc3ccccc23)ccc1Oc1ccc2ccccc2c1Br	3
Cc1cc2cc(CN(Cc3cccs3)C(=O)Nc3ccccc3F)c(=O)[nH]c2cc1C	19
COc1cc(/C=N/Nc2ncnc3sc4c(c23)CCCC4)ccc1OCC(=O)Nc1ccccc1	32
COc1ccc(NC(=O)Cn2nnc(-c3ccccc3NC(=O)c3cccs3)n2)cc1	27
O=C(Nc1cccc(NC(=O)c2ccc(Cl)cc2Cl)c1)c1cccnc1	2
CCOc1ccc(Nc2nc(NCCO)nc(C)c2[N+](=O)[O-])cc1	32
CCn1nnnc1SCC(=O)Nc1ccc(OCc2ccccc2)cc1	19
CCOC(=O)c1ccc(Nc2cc(C)nc3ncnn23)cc1	1
Cc1ccc2[nH]cc(CCNC(=O)c3cccnc3)c2c1	1
O=C(Nc1ncnc2sc3c(c12)CCC3)c1cccs1	20
CCOc1ccc(OCC)c(NC(=O)CSc2nc3c(C)cccc3cc2C#N)c1	16
Cc1cc(Nc2ccc(N3CCC(C)CC3)cc2)n2ncnc2n1	25
Cc1ccc(-c2csc3ncnc(SCC(=O)Nc4nc(-c5ccccc5)cs4)c23)cc1	33
CCc1ccccc1NC(=O)NCCCNc1nc2cc(C)cc(C)c2cc1C#N	29
COc1cccc(-c2cc3cc4c(c(NCc5cc(OC)c(OC)c(OC)c5)n3n2)CCC4)c1	4
Cc1nn(-c2ccccc2)c2sc(C(=O)N(CC(=O)NC3CCCC3)C3CC3)cc12	22
CC1CCc2c(sc3ncnc(NCc4ccco4)c23)C1 (stereo unspecified)	2
c1cncc(CNc2ncnc3ccccc23)c1	15
Cc1cc(O)nc(SCC(=O)Nc2ccc(C(=O)NC3CCCCC3)cc2)n1	21

Compound	Activity [%]
COc1ccc2[nH]c(=O)c(CN(CCc3cccc(C)c3)C(C)=O)cc2c1	5
O=[N+]([O-])c1ccccc1-c1nnc(CSc2ncnc3sc4c(c23)CCCC4)o1	7
Cc1sc(NC(=O)CSc2ncnc3sc4c(c23)CCCC4)c(C#N)c1C	26
O=C(CSc1ncnc2sc3c(c12)CCCC3)Nc1nc(-c2ccccc2)cs1	34
O=C(CSc1ncnc2sc3c(c12)CCC3)Nc1ccc(S(=O)(=O)N2CCOCC2)cc1	12
COc1cc(CNCc2cccnc2)ccc1OCc1ccccc1Cl	1
COc1ccc(-c2nc3cc(NC(=O)COc4ccc(C)cc4C)ccc3o2)cc1Br	32
COc1ccc(CN(CC(=O)NC2CCCC2)C(=O)Cn2cnc3sc(C)c(C)c3c2=O)cc1	21
Cc1ccc2[nH]c(=O)c(CN(Cc3cccs3)C(=O)c3ccco3)cc2c1	22
O=C(CSc1ncnc2sc3c(c12)CCCC3)Nc1ccc(S(=O)(=O)N2CCCCCC2)cc1	11
CCC(C)(C)C1CCc2sc3ncnc(N/N=C(\C)c4ccc(OC)cc4)c3c2C1 (stereo unspecified)	12
O=C(CSc1ncnc2sc3c(c12)CCCC3)NCc1cccc2c1OCO2	16
O=C(CSc1ncnc2sc3c(c12)CCCC3)Nc1nc(-c2ccc(F)cc2)cs1	32
CCOc1ccc(Nc2c3c(nc4ncnn24)CCC3)cc1	26
CCOC(=O)c1ccc(Nc2c([N+](=O)[O-])c(=O)oc3ccccc23)cc1	5
O=C(Nc1ccc(Oc2ccc3nsnc3c2)c(Cl)c1)c1cc(Cl)ccc1O	30
COC(=O)c1sc(NC(=O)CSc2nc(C3CC3)nc3sc4c(c23)CCCC4)nc1C	31
COc1ccc(CCNc2c(Cc3ccccc3)c(C)nc3ncnn23)cc1OC	21
Cc1ccc(S(=O)(=O)N(Cc2ccc3c(c2)OCO3)Cc2cc3ccc(C)c(C)c3[nH]c2=O)cc1	12
O=C(NC1CCCC1)C(c1cccs1)N(C(=O)Cc1cccs1)c1ccc2c(c1)OCCO2 (stereo unspecified)	16
COc1cc(NC(=O)CSc2nnnn2-c2ccc3c(c2)OCCO3)cc(OC)c1	15
CCOC(=O)c1c(-c2ccccc2)csc1NC(=O)CSc1ncnc2sc3c(c12)CCCC3	11

Target: Receptor tyrosine-protein kinase erbB-2 (Homo sapiens, UniProt P04626)
Sequence (P04626 whole entry): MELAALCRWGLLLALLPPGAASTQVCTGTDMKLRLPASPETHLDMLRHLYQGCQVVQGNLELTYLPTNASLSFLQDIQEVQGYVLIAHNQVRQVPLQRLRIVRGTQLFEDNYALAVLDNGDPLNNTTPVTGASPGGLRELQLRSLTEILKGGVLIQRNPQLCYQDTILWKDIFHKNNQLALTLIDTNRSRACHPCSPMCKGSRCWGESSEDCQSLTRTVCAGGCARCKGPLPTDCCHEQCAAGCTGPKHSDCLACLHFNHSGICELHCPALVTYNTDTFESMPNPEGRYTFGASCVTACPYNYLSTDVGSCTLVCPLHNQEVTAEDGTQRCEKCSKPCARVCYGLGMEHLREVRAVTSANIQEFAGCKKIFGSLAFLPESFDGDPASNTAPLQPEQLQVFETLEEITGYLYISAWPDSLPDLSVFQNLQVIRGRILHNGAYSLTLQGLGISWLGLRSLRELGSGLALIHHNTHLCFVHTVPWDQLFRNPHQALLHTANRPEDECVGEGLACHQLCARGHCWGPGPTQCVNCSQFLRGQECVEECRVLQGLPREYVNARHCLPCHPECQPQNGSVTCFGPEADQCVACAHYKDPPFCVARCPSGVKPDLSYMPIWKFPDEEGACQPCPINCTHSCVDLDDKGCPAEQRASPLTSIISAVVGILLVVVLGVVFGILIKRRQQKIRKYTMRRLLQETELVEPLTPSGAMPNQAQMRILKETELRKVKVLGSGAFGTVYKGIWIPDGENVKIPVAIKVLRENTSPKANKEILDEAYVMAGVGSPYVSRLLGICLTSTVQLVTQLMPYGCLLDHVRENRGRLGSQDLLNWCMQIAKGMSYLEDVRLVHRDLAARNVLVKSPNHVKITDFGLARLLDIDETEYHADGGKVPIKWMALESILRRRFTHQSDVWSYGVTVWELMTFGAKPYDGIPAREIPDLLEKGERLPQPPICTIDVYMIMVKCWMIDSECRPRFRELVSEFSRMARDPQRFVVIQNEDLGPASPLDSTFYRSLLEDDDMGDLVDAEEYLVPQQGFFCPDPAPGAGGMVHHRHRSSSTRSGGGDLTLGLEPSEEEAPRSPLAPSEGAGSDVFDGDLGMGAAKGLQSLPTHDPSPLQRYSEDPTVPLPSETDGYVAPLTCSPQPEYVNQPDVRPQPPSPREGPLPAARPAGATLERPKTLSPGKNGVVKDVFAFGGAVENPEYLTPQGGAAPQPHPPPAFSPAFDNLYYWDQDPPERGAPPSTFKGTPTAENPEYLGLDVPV
Test: Inhibition of HER2
Settings: not given

pIC50	Compound
5.77	COc1cc2nccc(Nc3ccc(N4C(=O)c5ccc(Cl)cc5C4=O)c(C)c3)c2cc1OC
6.13	c1ccc(Oc2ccc(Nc3ccnc4ccccc34)cc2)cc1
4.68	Cc1cc2nc(CBr)c(-c3ccccc3)nc2cc1C
8.05	COCOCC#CC(=O)Nc1ccc2ncnc(Nc3cccc(Br)c3)c2c1
3.92	Nc1ncnc2nc(Sc3cc(Cl)ccc3Cl)[nH]c12
7.92	COCC(=O)NC/C=C/c1ccc2ncnc(Nc3ccc(Oc4ccc(C)nc4)c(C)c3)c2c1 [CP-724714]
8.00	CS(=O)(=O)CCNCc1nc(-c2ccc3ncnc(Nc4ccc(OCc5cccc(F)c5)c(Cl)c4)c3c2)cs1
3.51	CCCCn1c(S(=O)(=O)c2cc(OC)c(OC)c(OC)c2)nc2c(N)ncnc21
5.28	CONC(=O)c1ccc(F)c(Nc2ncnn3cc(NC(=O)OCCCS(C)(=O)=O)c(C(C)C)c23)c1

Tested on: SK-BR-3
Test: Cytotoxicity against human SKBr3 cells after 72 hrs by MTT assay
Format: functional, cell-based
Settings: SK-BR-3, 72 h

Compound	pIC50
CCN(CC)CCNc1ccc(Nc2ccnc3cc4ccccc4cc23)cc1	5.70
COc1ccc2nc(C)cc(Nc3ccc(Oc4ccc5ccccc5c4)c(Cl)c3)c2c1	5.30
CCN(CC)c1ccc(NC(=O)CSc2ncnc3sc(C)c(C)c23)cc1C	4.80
c1ccc(OCCOc2ccc(Nc3ccnc4cc5ccccc5cc34)cc2)cc1	5.70
Fc1ccccc1CCNc1c2c(nc3ncnn13)CCCC2	4.85
COc1ccc(CCNc2cc(-c3ccccc3)nc3ncnn23)cc1	5.05
COc1ccc2nc(C)cc(Nc3ccc(Oc4ccc(Cl)cc4)c(Cl)c3)c2c1	5.30
Brc1ccc2ncnc(NCCc3ccccc3)c2c1	4.82
c1ccc(CCNc2ccnc3cc4ccccc4cc23)cc1	5.10
CN1CCN(CCCNc2ccnc3cc4ccccc4cc23)CC1	4.82
CN1CCN(c2ccc(Nc3ncnc4sc5c(c34)CCCC5)cc2)CC1	5.05
CCc1cc2c(NCCc3ccc(OC)c(OC)c3)ncnc2s1	4.85

From ChEMBL document CHEMBL1150417, “Discovery of novel small-molecule inhibitors of human epidermal growth factor receptor-2: combined ligand and target-based approach” (J Med Chem, 2008)
